# Reference: patent publication US20060240494A1, “Biocidal molecules, macromolecular targets and methods of production and use” (priority 2000, published 2006)
# Like-named read-outs stand apart in the source and are kept apart here. Non-standard residues stand in square brackets, D forms with d. No end group written: not given here. *: point of attachment. Biotin = O=C1N[C@H]2[C@H](CS[C@H]2CCCCC(=O)*)N1
# Assays:
# [1] = system: E. coli strains (including TG-1, or K-12)
# Hsp70 = Hsp70 (Homo sapiens, UniProt P0DMV8); details: nitrocellulose membrane-bound protein; 10 μg/ml peptide
# Sequence of Hsp70 (P0DMV8 whole entry): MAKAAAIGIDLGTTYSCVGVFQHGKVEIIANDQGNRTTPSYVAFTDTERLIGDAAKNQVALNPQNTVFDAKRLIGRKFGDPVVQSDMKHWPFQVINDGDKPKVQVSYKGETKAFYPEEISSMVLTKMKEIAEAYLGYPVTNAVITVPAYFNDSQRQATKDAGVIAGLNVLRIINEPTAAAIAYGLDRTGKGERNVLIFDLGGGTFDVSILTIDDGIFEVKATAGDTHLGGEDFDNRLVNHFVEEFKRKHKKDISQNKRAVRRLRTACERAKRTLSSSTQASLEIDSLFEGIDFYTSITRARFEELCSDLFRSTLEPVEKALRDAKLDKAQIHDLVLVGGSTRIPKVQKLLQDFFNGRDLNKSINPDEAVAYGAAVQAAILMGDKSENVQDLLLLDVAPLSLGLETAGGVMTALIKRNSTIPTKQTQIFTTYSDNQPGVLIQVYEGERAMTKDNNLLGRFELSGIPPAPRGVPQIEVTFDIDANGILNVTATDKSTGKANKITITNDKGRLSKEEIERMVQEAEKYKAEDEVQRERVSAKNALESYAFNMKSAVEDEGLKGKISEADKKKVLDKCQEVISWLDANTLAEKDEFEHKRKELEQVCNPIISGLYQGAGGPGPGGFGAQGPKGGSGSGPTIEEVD
# LPS from S. typhimurium = details: nitrocellulose membrane-bound LPS
# [2] = molecular target: E. coli DnaK aa583-615, hinge region between helices D and E (Escherichia coli, UniProt P0A6Y8); details: 5 μg fragment; 10 μg/mL biotin-labeled peptide
# Sequence of E. coli DnaK aa583-615, hinge region between helices D and E (P0A6Y8 584-616 limits assumed): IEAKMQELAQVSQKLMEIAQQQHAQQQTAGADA
# Excerpt: (§1) A control strip was stained with amido black 10B to verify the presence of all DnaK fragments on the nitrocellulose sheet.
# GroEL = GroEL (Escherichia coli, UniProt P0A6F5); details: nitrocellulose membrane-bound protein; 10 μg/ml peptide
# Sequence of GroEL (P0A6F5 2-548 limits assumed): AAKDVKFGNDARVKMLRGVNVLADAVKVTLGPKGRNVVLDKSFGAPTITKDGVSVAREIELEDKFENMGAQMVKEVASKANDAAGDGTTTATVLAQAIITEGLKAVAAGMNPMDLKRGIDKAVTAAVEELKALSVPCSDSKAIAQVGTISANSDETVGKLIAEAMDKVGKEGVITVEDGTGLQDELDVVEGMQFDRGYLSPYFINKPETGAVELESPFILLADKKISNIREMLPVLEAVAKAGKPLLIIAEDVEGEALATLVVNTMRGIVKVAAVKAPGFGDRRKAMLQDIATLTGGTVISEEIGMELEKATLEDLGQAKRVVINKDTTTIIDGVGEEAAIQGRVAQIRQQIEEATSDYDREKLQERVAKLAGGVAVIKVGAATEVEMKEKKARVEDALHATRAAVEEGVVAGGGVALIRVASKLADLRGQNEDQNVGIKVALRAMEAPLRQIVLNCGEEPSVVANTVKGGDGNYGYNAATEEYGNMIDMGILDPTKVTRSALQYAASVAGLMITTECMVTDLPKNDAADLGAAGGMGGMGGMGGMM
# E. coli LPS = details: nitrocellulose membrane-bound LPS
# DnaK = DnaK (Escherichia coli, UniProt P0A6Y8); details: 1 μg DnaK; biotin-labeled peptide
# Sequence of DnaK (P0A6Y8 whole entry, the tested form may be a part): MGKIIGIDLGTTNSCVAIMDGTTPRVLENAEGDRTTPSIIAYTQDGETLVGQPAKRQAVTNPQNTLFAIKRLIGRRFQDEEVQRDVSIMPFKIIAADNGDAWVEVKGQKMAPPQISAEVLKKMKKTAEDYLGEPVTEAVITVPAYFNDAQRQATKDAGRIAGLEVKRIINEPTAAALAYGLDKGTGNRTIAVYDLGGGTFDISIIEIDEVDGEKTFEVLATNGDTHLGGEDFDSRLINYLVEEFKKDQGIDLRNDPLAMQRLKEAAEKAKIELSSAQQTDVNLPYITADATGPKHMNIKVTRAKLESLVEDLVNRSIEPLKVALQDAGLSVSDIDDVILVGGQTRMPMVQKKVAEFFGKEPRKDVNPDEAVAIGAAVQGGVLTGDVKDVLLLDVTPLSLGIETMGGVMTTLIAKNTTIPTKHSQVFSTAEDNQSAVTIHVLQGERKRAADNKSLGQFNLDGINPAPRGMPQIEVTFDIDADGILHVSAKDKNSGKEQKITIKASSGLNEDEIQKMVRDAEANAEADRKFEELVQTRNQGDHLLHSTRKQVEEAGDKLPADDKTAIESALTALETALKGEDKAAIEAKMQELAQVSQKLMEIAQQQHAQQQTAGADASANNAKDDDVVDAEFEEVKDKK
# [3] = molecular target: E. coli DnaK aa397-439, conventional peptide binding pocket (Escherichia coli, UniProt P0A6Y8); details: non-specific binding; 10 μg/mL biotin-labeled peptide
# Sequence of E. coli DnaK aa397-439, conventional peptide binding pocket (P0A6Y8 397-439): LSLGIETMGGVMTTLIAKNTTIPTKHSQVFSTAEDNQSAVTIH
# Excerpt: as §1
# recombinant E. coli DnaK = molecular target: T1, recombinant E. coli DnaK (Escherichia coli, UniProt P0A6Y8); experiment: EnzChek ATPase assay, recombinant DnaK; assay type: biochemical; details: 50 molar equivalents of peptide; 22° C., 30 min; UV absorbance at 360 nm
# T1 construct: purchased StressGen, Victoria, Canada
# T1 sequence (P0A6Y8 whole entry): as the sequence (P0A6Y8 whole entry, the tested form may be a part) above
# Excerpt: To determine whether the proline-rich antibacterial peptides that were predicted to bind to DnaK between the peptide binding pocket and the C-terminus would interfere with ATPase activity, a recently developed continuous spectrophotometric (colorimetric) ATPase activity assay [Rieger, C. E. et al, (1997) Anal. Biochem. 246: 86-95] was used. This assay uses using 2-amino-6-mercapto-7-methylpurine ribonucleoside (MESG)/purine nucleoside phosphorylase reaction to detect the released inorganic phosphate (EnzChek ATPase determination kit from Molecular Probes, Eugene, USA). Assays were performed in 500 μL tubes in duplicates in a total volume of 125 μL containing 20 mM tris(hydroxymethyl)amino-ethane (Tris)-HCl, pH 7.6, 1 mM MgCl2, […] (except in assaying the baseline), 5 μg of DnaK (recombinant DnaK protein from StressGen,Victoria, Canada) and 50 molar equivalents of the particular peptide, MESG and the purine nucleoside phosphorylase recommended by the manufacturer. After incubation at 22° C. for 30 min, 100 μL of the reaction mixture was transferred to a quartz cuvette and the ultraviolet (UV) absorbance at 360 nm was measured. The assay was run in a miniaturized form to increase the concentration and therefore the enzymatic activity of DnaK. In a larger, standard format the ATPase activity of DnaK without peptide addition was 6 pmol/μg/min, in line with the published data of 4 pmol/μg/min [Liberek, K. et al, (1991) Proc. Natl. Acad. Sci. USA 88: 2874-2878].
# [4] = system: alkaline phosphatase activities of live E. coli TG-1 cells; assay type: cell-based
# [5] = system: β-galactosidase activities of live E. coli TG-1 cells; assay type: cell-based
# E. coli D22 = details: Otvos et al, 2000, Protein Science; cited from earlier work
# [6] = molecular target: E. coli DnaK fragment aa583-615 (D-E helix hinge) (Escherichia coli, UniProt P0A6Y8); experiment: Fluorescence polarization with synthetic DnaK fragment aa583-615; assay type: binding; details: Tris HCl at pH 8.0; for binding to E. coli D-E helix hinge region aa583-615 at high concentration: 128 μM fragment
# Sequence of E. coli DnaK fragment aa583-615 (D-E helix hinge) (P0A6Y8 584-616): as the sequence (P0A6Y8 584-616 limits assumed) above
# Method: The binding of the synthetic DnaK fragments to their fluorescein-labeled pyrrhocoricin counterparts was also assessed in solution, by fluorescence polarization [Lundblad, J. R. et al, (1996) Mol. Endocrinol. 10: 607-612]. For these experiments, the unlabeled peptides were serially diluted in PBS (pH 7.4) or 0.1 M Tris-HCl (pH 8.0) containing 0.1 M ethylene-diamine-tetraacetic acid (EDTA) in 50 μL final volume in 6×50 mm disposable glass borosilicate tubes. The fluoresceinated peptides were added to each tube in a 50 μL aliquot to a final concentration of 1 nM and tubes were incubated at 37° C. for 5 minutes. The extent of fluorescence anisotropy was measured on a Beacon 2000 fluorescence polarization instrument (PanVera, Madison, Wis.) and calculated as millipolarization values. The filters used were 485 nm excitation and 535 nm emission with 3 nm band width. Non-linear curve fitting was done by using a dose-response logistical transition [y=a0+a1/(1+x/a2)^a^3] and the Levenberg-Marquardt Algorithm within the SlideWrite software package. The provided Kd value (a2 coefficient) was calculated by the program.
# To quantitatively characterize the pyrrhocoricin—D-E helix interaction, the complete binding curves were measured for E. coli DnaK fragments aa583-615 and aa588-615, both of SEQ ID NO: 10.
# [7] = molecular target: T2, S. aureus DnaK 554-585 (D-E helix fragment) (Staphylococcus aureus, UniProt P45554); experiment: Fluorescence polarization with S. aureus DnaK D-E helix fragment; assay type: binding; details: Tris HCl at pH 8.0
# T2 sequence (P45554 554-585 limits assumed): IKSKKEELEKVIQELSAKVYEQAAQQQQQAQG
# [8] = molecular target: blocked E. coli DnaK fragment aa591-615 (Escherichia coli, UniProt P0A6Y8); assay type: binding
# Sequence of blocked E. coli DnaK fragment aa591-615 (P0A6Y8 592-616 limits assumed): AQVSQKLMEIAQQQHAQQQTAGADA
# [9] = Hoffmann et al, 1999; cited from earlier work
# [10] = peptide 32 μg/mL, live E. coli TG-1, four independent assays
# [11] = peptide 32 μg/mL, live E. coli TG-1, three independent assays
substance,measurement,setting,value
Biotin-KVDKGSYLPRPTPPRPIYNRN [biotin-K-pyrrhocoricin],concentration range killing E. coli strains,[1],submicromolar range
same,binding to Hsp70 on the peptide blot,Hsp70,very weak peptide binding
same,binding to S. typhimurium LPS on Western-blot,LPS from S. typhimurium,did not label LPS bands
same,dot blot binding to D-E helix hinge fragment,[2],bound
same,binding to GroEL on the peptide blot,GroEL,very weak peptide binding
same,binding to E. coli LPS on Western-blot,E. coli LPS,did not label LPS bands
same,binding to DnaK on the peptide blot,DnaK,bound strongly
same,dot blot binding to peptide-binding pocket fragment,[3],similarly bound
Cecropin A: membrane-active antimicrobial peptide; purchased from Bachem (KWKLFKKIEKVGQNIRDGIIKAGPAVAVVGQATQIAK),effect on ATPase activity of recombinant DnaK,recombinant E. coli DnaK,did not influence
Conantokin G,Inhibition of enzymatic activity after 1 hour (%) Alkaline Phosphatase,[4],(−3) ± 23%
same,Inhibition of enzymatic activity after 1 hour (%) β-Galactosidase,[5],(−10) ± 10%
D-pyrrhocoricin: SEQ ID NO: 3 with all amino acids in the D configuration; inactive analog ([dV][dD][dK]G[dS][dY][dL][dP][dR][dP][dT][dP][dP][dR][dP][dI][dY][dN][dR][dN]),Inhibition of enzymatic activity after 1 hour (%) Alkaline Phosphatase,[4]; [10],(−6) ± 16%
same,effect on ATPase activity of recombinant DnaK,recombinant E. coli DnaK,negligible effect
same,killing of E. coli D22,E. coli D22,completely inactive
same,Inhibition of enzymatic activity after 1 hour (%) β-Galactosidase,[5]; [11],(−4) ± 43%
Magainin 2: antibacterial peptide that kills bacteria by disintegrating the membrane; from Bachem (GIGKFLHSAKKFGKAFVGEIMNS),Inhibition of enzymatic activity after 1 hour (%) Alkaline Phosphatase,[4]; [10],(−23) ± 38%
same,effect on ATPase activity of recombinant DnaK,recombinant E. coli DnaK,did not influence
same,Inhibition of enzymatic activity after 1 hour (%) β-Galactosidase,[5]; [11],(−50) ± 55%
NTDGSTDYGILQINSR,binding to E. coli D-E helix hinge region aa583-615,[6]; labeled peptide 1 nM,failed to bind
N—F-apidaecin: apidaecin with fluorescein label attached at the N-terminus,binding to E. coli D-E helix hinge region aa583-615 at high concentration,[6],some binding
same,binding to S. aureus D-E helix fragment,[7],failed to bind
N—F-drosocin: drosocin with fluorescein label attached at the N-terminus (fluorescein-KGKPRPYSPRPTSHPRPIRV),binding to E. coli D-E helix hinge region aa583-615 at high concentration,[6],some binding
same,binding to S. aureus D-E helix fragment,[7],failed to bind
same,binding to blocked E. coli DnaK fragment aa591-615,[8],failed to bind
"native glycosylated drosocin: native drosocin glycopeptide with a disaccharide in the mid-chain position (GKPRPYSPRPTSHPRPIRV; also: O-glycosylated disaccharide in mid-chain position; UniProt P36193 22-40, looked up)",antibacterial activity when injected into mice,[9],no antibacterial activity
